Data from patent US20210352895A1, “SYNERGISTIC PESTICIDAL COMPOSITIONS AND METHODS FOR DELIVERY OF ACTIVE INGREDIENTS” (0903608 B.C. Ltd., priority 2018, published 2021).
Read-outs that look alike come from different tables or passages of the source.

Key:
[1] = tested on: Trichoplusia ni; assay: In-vitro insecticidal efficacy of Entrust SC (spinosad) with saturated and unsaturated aliphatic acids on artificial diet, Abbott and Colby formulae; type: in vivo, Trichoplusia ni (cabbage looper); details: Entrust SC 0.034 ppm ([…] spinosad); aliphatic acid (salt) 500 ppm; Abbott-corrected
Procedure: An artificial diet suitable for Trichoplusia ni (cabbage looper caterpillar) was prepared from a commercially available general purpose lepidoptera artificial diet premix (General Purpose Lepidoptera Diet available from Frontier Scientific Services, Newark, Del.) mixed in agar media and then heated to liquify the media. The liquid artificial diet media was then used to fill each well of a 96-well treatment plate with 200 uL of artificial diet media, which was allowed to solidify at room temperature and stored at approximately 4 C.
A 20 uL treatment sample of each treatment formulation was then placed on top of the solidified artificial diet media in each well of the 96 well plates and allowed to dry overnight. The following day, one neonate Trichoplusia ni (cabbage looper) larva (hatched from eggs obtained from the Natural Resource Canada insect research facility in Sault-Ste-Marie, ON, Canada) was added to each well of the plate, and their mortality rate was evaluated after 5 days, to determine the insecticidal efficacy of the Entrust® SC treatment alone, each exemplary unsaturated or saturated aliphatic acid (and salt) alone, and each combination of spinosad (as Entrust® SC) and unsaturated or saturated aliphatic acid (and salt). Each experiment contained 3 replicates.
While for SF<1, antagonism is present and for SF=1, the efficacy of the compounds is merely additive.

[2] = tested on: Fusarium oxysporum; assay: Synergistic Growth Inhibition Assay (MIC / FIC index, resazurin, 96-well) on Fusarium oxysporum; type: cell-based
Procedure: (§1) In some embodiments, the synergistic action between the pesticidal active ingredient, and the at least one C4-C10 (or alternatively C11 or C12) saturated or unsaturated aliphatic acid components of the pesticidal compositions according to embodiments of the present disclosure was tested using a Synergistic Growth Inhibition Assay, which is derived from and related to a checkerboard assay as is known in the art for testing of combinations of antimicrobial agents. In the Synergistic Growth Inhibition Assay used in accordance with some embodiments of the present disclosure, multiple dilutions of combinations of pesticidal active ingredient and at least one C4-C10 saturated or unsaturated aliphatic acid agents are tested in individual cells for inhibitory activity against a target pest or pathogenic organism. In one such embodiment, the combinations of pesticidal active ingredient and C4-C10 (or alternatively C11 or C12) saturated or unsaturated aliphatic acid agents may preferably be tested in decreasing concentrations. In a further such embodiment, the combinations of pesticidal active ingredient and C4-C10 (or alternatively C11 or C12) saturated or unsaturated aliphatic acid agents may be tested in increasing concentrations. These multiple combinations of the pesticidal active ingredient and at least one C4-C10 (or alternatively C11 or C12) saturated or unsaturated aliphatic acid agents may be prepared in 96-well microtiter plates. In one such embodiment, the Synergistic Growth Inhibition Assay then comprises rows which each contain progressively decreasing concentrations of the pesticidal active ingredient and one or more C4-C10 (or alternatively C11 or C12) saturated or unsaturated aliphatic acid agents to test for the MIC of the agents in combination at which growth of the target pest or pathogen is inhibited. Thus, each well of the microtiter plate is a unique combination of the two agents, at which inhibitory efficacy of the combination against the target pest or pathogen can be determined.
(§2) In one embodiment according to the present disclosure, for each row of microtiter cells in the Synergistic Growth Inhibition Assay, the FIC index is calculated from the lowest concentration of the pesticidal active ingredient and one or more C4-C10 saturated or unsaturated aliphatic acid agents necessary to inhibit growth of a target pest or pathogen. The FIC of each component is derived by dividing the concentration of the agent present in that well of the microtiter plate by the minimal inhibitory concentration (MIC) needed of that agent alone to inhibit growth of the target pest or pathogen. The FIC index is then the sum of these values for both agents in that well of the microtiter plate. The FIC index is calculated for each row as follows:
(§3) FICindex=MICa/MICA+MICb/MICB
(§4) Fractional inhibitory concentration indices may then used as measure of synergy. […] When the FIC index is equal to 1, the combination is additive.
(§5) Then, serial dilutions of these initial compositions in successive wells in the row of the microtiter plate were used to assay the pesticidal composition under the same conditions to determine the concentration of the composition combining the two agents corresponding to the microtiter well in which growth inhibition of the target pest or organism ceases.
Resazurin dye (also known as Alamar blue dye) was used as an indicator to determine the presence of growth or inhibition of growth of Fusarium oxysporum in the wells of the 96 well microtiter plates used in the exemplary Synergistic Growth Inhibition Assay. In addition to the color change of the resazurin dye in the presence of growth of the Fusarium oxysporum, an optical or visual examination of the microtiter well may also be made to additionally determine the presence of growth or inhibition of growth of the Fusarium oxysporum.

[3] = tested on: Botrytis cinerea; assay: Synergistic Growth Inhibition Assay (MIC / FIC index, resazurin, 96-well) on Botrytis cinerea; type: cell-based; details: Botrytis cinerea
Procedure: as §1, §2, §3, §4, §5
(§6) Similarly to as described above, Resazurin was used as an indicator of growth or inhibition of growth of Botrytis cinerea in the exemplary Synergistic Growth Inhibition Assay. In addition to the color change of the resazurin, an optical or visual examination of the microtiter well may also be made to additionally determine the presence of growth or inhibition of growth of the Botrytis cinerea.

[4] = tested on: Alternaria solani; assay: Synergistic Growth Inhibition Assay (MIC / FIC index) on Alternaria solani; type: cell-based; details: for MIC: Alternaria solani, Compound B alone, read-out: MIC (B)
Procedure: as §1, §2, §3, §4, §5
Alternatively, other suitable representative pest or pathogen organisms may be used to determine synergy of combinations of pesticidal active ingredient agents and one or more C4-C10 (or alternatively C11 or C12) saturated or unsaturated aliphatic acid agents in accordance with embodiments of the present disclosure. For example, other representative fungal pathogens may be used, such as but not limited to Leptosphaeria maculans, Sclerotinia spp. and Verticillium spp.

[5] = tested on: Sclerotinia sclerotiorum; assay: Synergistic Growth Inhibition Assay (MIC / FIC index, resazurin, 96-well) on Sclerotinia sclerotiorum; type: cell-based; details: Sclerotinia sclerotiorum, […], Compound B = saturated aliphatic acid, incubation period of 7 days, read-out: MIC (B)
Procedure: as §1, §2, §3, §4, §5
as §6, with “Sclerotinia sclerotiorum” for “Botrytis cinerea”, “Sclerotinia sclerotiorum.” for “Botrytis cinerea.”

[6] = Fusarium oxysporum, 48 h, Compound B alone, Fusarium oxysporum, 48 hours incubation, read-out: MIC (B)
[7] = Fusarium oxysporum, 96 h, Table 58, Compound B = saturated aliphatic acid, alone or in combination with oregano oil, incubation for 4 days, read-out: MIC (B)
[8] = 24 h, Table 75, Compound B = saturated aliphatic acid, alone or in combination with wintergreen oil, incubation period of 24 hours, read-out: MIC (B)
[9] = 24 h, Table 78, Compound B = saturated aliphatic acid, alone or in combination with oregano oil, incubation period of 24 hours, read-out: MIC (B)

CCCCCCCCCCCC(=O)O [Dodecanoic acid, dodecanoic acid]
Observed Efficacy, W (%) [1]: 0%

CCCCCCCC/C=C/C(=O)O [Trans-2 undecenoic acid]
Observed Efficacy, W (%) [1]: 27.3%

CCCCCCC=CCC(=O)O [3-Decenoic acid, 3-decenoic acid]
MIC (B) ([2]; Compound B (aliphatic acid) alone, Fusarium oxysporum, incubation period of 48 hours): 0.3125 mg/mL
Observed Efficacy, W (%) [1]: 0%

CCCCCCCCCC(=O)O [Decanoic acid, decanoic acid]
MIC ([2]; Fusarium oxysporum, 24 h, Table 53, Compound B = saturated aliphatic acid, alone or in combination with wintergreen oil, incubation for 24 hours, read-out: MIC (B)): 62.5 µg/mL
MIC ([2]; Fusarium oxysporum, 96 h, Compound B alone, incubation for 4 days, read-out: MIC (B)): 62.5 µg/mL
Observed Efficacy, W (%) [1]: 0%

CCCC=CCC(=O)O [3-heptanoic acid]
Observed Efficacy, W (%) [1]: 4.5%

CCCCC=CCC(=O)O [3-Octenoic acid, 3-octenoic acid]
Observed Efficacy, W (%) [1]: 0%

CCCCCCC/C=C/C(=O)O [Trans-2 decenoic acid]
Observed Efficacy, W (%) [1]: 0%
MIC (B) ([3]; Compound B alone, incubation period of 48 hours): 0.03906 mg/mL

C/C=C/C=C/C(=O)[O-].[K+] [(2E,4E)-2,4 hexadienoic acid, K-salt]
Observed Efficacy, W (%) [1]: 9.1%

CCCCCCCCC(C)C(=O)O (stereo not shown) [2-methyldecanoic acid]
MIC ([4]; 7 days incubation): 1000 µg/mL
MIC ([4]; incubation period of 7 days): 125 µg/mL
MIC [2, 6]: 62.5 µg/mL
MIC ([3]; 48 h, Compound A alone, incubation period of 48 hours, read-out: MIC (A)): 15.6 µg/mL

C/C=C/C=C/C(=O)O [(2E,4E)-2,4 hexadienoic acid]
Observed Efficacy, W (%) [1]: 4.5%

C=CCCCC(=O)O [5-hexenoic acid]
Observed Efficacy, W (%) [1]: 0%

CC/C=C/CC(=O)O [Trans-3-hexenoic acid, trans-3-hexenoic acid]
Observed Efficacy, W (%) [1]: 0%

CCCCCC(=O)O [Hexanoic acid, hexanoic acid]
MIC ([2]; Fusarium oxysporum, 24 h, read-out: MIC (B), Table 51, Compound B = saturated aliphatic acid, alone or in combination with thyme oil, incubation for 24 hours): 78.1 µg/mL
MIC ([2]; Fusarium oxysporum, 24 h, read-out: MIC (B), Table 52, Compound B = saturated aliphatic acid, alone or in combination with garlic oil, incubation for 24 hours): 156 µg/mL
MIC ([2]; Fusarium oxysporum, 96 h, read-out: MIC (B), Table 54, Compound B = saturated aliphatic acid, alone or in combination with peppermint oil, incubation for 4 days): 156 µg/mL
MIC ([2]; Fusarium oxysporum, 96 h, read-out: MIC (B), Table 58, Compound B = saturated aliphatic acid, alone or in combination with oregano oil, incubation for 4 days): 156 µg/mL
Observed Efficacy, W (%) [1]: 27.3%
MIC ([3]; 24 h, read-out: MIC (B), Table 75, Compound B = saturated aliphatic acid, alone or in combination with wintergreen oil, incubation period of 24 hours): 39.1 µg/mL
MIC ([3]; 24 h, read-out: MIC (B), Table 78, Compound B = saturated aliphatic acid, alone or in combination with oregano oil, incubation period of 24 hours): 156 µg/mL
MIC ([3]; 96 h, read-out: MIC (B), Table 74, Compound B = saturated aliphatic acid, alone or in combination with thyme oil, incubation period of 4 days): 312 µg/mL
MIC ([3]; 96 h, read-out: MIC (B), Table 76, Compound B = saturated aliphatic acid, alone or in combination with spearmint oil, incubation period of 4 days): 312 µg/mL
MIC (B) ([3]; Compound B (aliphatic acid) alone, 2-fold dilutions, incubation period of 48 hours): 0.07812 mg/mL

CCCCCCC(C)C(=O)O (stereo not shown) [2-methyloctanoic acid]
MIC ([4]; 7 days incubation): 625 µg/mL
MIC ([4]; incubation period of 7 days): 156 µg/mL
MIC [2, 6]: 156 µg/mL

C=CCCCCCC(=O)O [7-octenoic acid]
Observed Efficacy, W (%) [1]: 0%

CCCCCCCC(=O)[O-].[K+] [Octanoic acid, K-salt]
Observed Efficacy, W (%) [1]: 0%

Mancozeb [reference compound]
MIC (A) ([4]; Compound A alone, 7 days incubation): 0.5 mg/mL
MIC (A) ([3]; Compound A alone, incubation period of 48 hours): 0.03125 mg/mL

CCCCCC=CCC(=O)O [3-nonenoic acid]
Observed Efficacy, W (%) [1]: 9.1%

CCCCCCC(=O)O [Heptanoic acid, heptanoic acid]
MIC ([2]; Fusarium oxysporum, 96 h, Table 54, Compound B = saturated aliphatic acid, alone or in combination with peppermint oil, incubation for 4 days, read-out: MIC (B)): 312 µg/mL
MIC ([2]; Fusarium oxysporum, 96 h, Table 55, Compound B = saturated aliphatic acid, alone or in combination with spearmint oil, incubation for 4 days, read-out: MIC (B)): 156 µg/mL
MIC [2, 7]: 78.1 µg/mL
Observed Efficacy, W (%) [1]: 9.1%
MIC ([5]; Table 68, alone or in combination with clove leaf oil): 78.1 µg/mL
MIC ([5]; Table 70, alone or in combination with rosemary oil): 78.1 µg/mL
MIC [3, 8]: 39.1 µg/mL
MIC [3, 9]: 78.1 µg/mL
MIC ([3]; 96 h, Table 76, Compound B = saturated aliphatic acid, alone or in combination with spearmint oil, incubation period of 4 days, read-out: MIC (B)): 78.1 µg/mL

CCC/C=C/C(=O)O [Trans-2-hexenoic acid, trans-2-hexenoic acid]
MIC (B) ([2]; Compound B alone, 24 hour incubation): 0.3125 mg/mL
Observed Efficacy, W (%) [1]: 0%

CCCCCC/C=C/C(=O)O [Trans-2 nonenoic acid]
Observed Efficacy, W (%) [1]: 3.6%

CCCC/C=C/CC(=O)O [Trans-3 octenoic acid]
Observed Efficacy, W (%) [1]: 4.5%

CCCCCCCC(=O)O [Octanoic acid, octanoic acid]
Observed Efficacy, W (%) [1]: 4.5%

C=CCCCCCCCC(=O)O [9-Decenoic acid, 9-decenoic acid]
Observed Efficacy, W (%) [1]: 4.5%

CCCCCCCCC(=O)O [Nonanoic acid, nonanoic acid]
MIC ([2]; Fusarium oxysporum, 24 h, read-out: MIC (B), Table 53, Compound B = saturated aliphatic acid, alone or in combination with wintergreen oil, incubation for 24 hours): 156 µg/mL
MIC [2, 7]: 78.1 µg/mL
MIC ([2]; Fusarium oxysporum, 96 h, read-out: MIC (B), Table 55, Compound B = saturated aliphatic acid, alone or in combination with spearmint oil, incubation for 4 days): 156 µg/mL
Observed Efficacy, W (%) [1]: 0%
MIC [3, 8]: 39.1 µg/mL
MIC [3, 9]: 78.1 µg/mL
